Laboratory results as given in patent publication US8183206B2, “Drugs comprising combination of antithrombotic agent with pyrazolone derivative” (Mitsubishi Tanabe Pharma Corporation, priority 2001, dated 2012).

Assays:
[1] = test system: patients in the acute stage of cerebral infarction; conditions: edaravone 30 mg i.v. twice daily for 14 days; evaluated three months after initiation or upon discharge within three months; cited from earlier work
[2] = test system: Wistar rat; assay: Influence of t-PA on the bleeding time (tail transection, anesthetized rats); format: in vivo; conditions: for Bleeding time: urethane anesthesia, t-PA 1 mg/kg constant i.v. infusion, edaravone 3 mg/kg i.v. 5 min before tail transection, average ± S.E., measured up to 30 min
Description: Via a cannula inserted into the femoral vein of each Wistar rat anesthetized with urethane (1.2 g/kg, i.p.), 1 mg/kg (1 mg=580000 IU; 4 mL/kg, 1 mL/hr) of physiological saline or t-PA was constantly infused. Fifty five minutes after the constant fusion was started, 3 mg of edaravone (3-methyl-1-phenyl-2-pyrazolin-5-one) or physiological saline was administered intravenously. Five minutes after that, the tail was transected at 2 mm from its tip immediately by using a razor. Every 15 seconds, the blood from the tail was blotted with a filter paper and the time until bleeding ceased was measured for up to 30 minutes.

[3] = test system: patients in the acute stage of cerebral infarction; assay: Comparative Example: edaravone alone, modified ranking scale, patients in the acute stage of cerebral infarction; format: in vivo, human; conditions: edaravone used alone, within three months, from cited data
Description: Evaluation results of edaravone, when administered alone, in accordance with the modified ranking scale are included in Therapeutic Research, Vol. 19(4), 1333-1345, 1998.
Evaluation method and results: Edaravone (30 mg/20 ml) diluted with 100 ml of physiological saline was intravenously infused to 8 patients in the acute stage of cerebral infarction constantly for 14 days twice daily (morning and evening), each over 30 minutes. During the administration term of this medicament, administration of another medicament which might have an influence on the drug efficacy evaluation was avoided. Evaluation was made in accordance with the modified ranking scale three months after the initiation of the administration or upon discharge of the patient from the hospital within three months after the initiation of administration.

[4] = test system: patients diagnosed as cerebral infarction; assay: Function prognosis by modified ranking scale in cerebral infarction patients (Example 2); format: in vivo, human; conditions: on leaving hospital within 1 month after start of administration
Description: Administration amount and method are shown below.
Sodium ozagrel: 80 mg of sodium ozagrel was dissolved in an adequate amount of an electrolyte solution or carbohydrate solution and the resulting solution was intravenously administered constantly for 2 weeks, twice daily, that is, in the morning and evening, each over 2 hours.
(§1) Argatroban: For the first two days, 60 mg/120 ml of argatroban was diluted with an adequate amount of a transfusion fluid and the resulting solution was intravenously infused constantly over 24 hours. For the following 5 days, 10 mg/20 ml of argatroban was diluted with an adequate amount of a transfusion fluid and the resulting solution was intravenously infused twice daily, that is, in the morning and evening, each over 3 hours.
Sodium ozagrel+edaravone: 80 mg of sodium ozagrel was dissolved in an adequate amount of an electrolyte solution or carbohydrate solution and the resulting solution was intravenously administered constantly for 2 weeks, twice daily, that is, in the morning and evening, each over 2 hours. At the same time, 30 mg/20 ml of edaravone was diluted with an adequate amount of physiological saline and the resulting solution was intravenously infused for 2 weeks, twice daily, that is, in the morning and evening, each over 20 minutes.
as §1, with “Argatroban+edaravone: For” for “Argatroban: For”, “3 hours; and at the same time, 30 mg/20 ml of edaravone was diluted with an adequate amount of physiological saline and the resulting solution was intravenously infused for 2 weeks twice daily, that is, in the morning and evening, each over 30 minutes.” for “3 hours.”
In the above-described table, what the meaning of grade will be explained briefly. Grade 0: no symptoms, Grade 1: some symptoms but non-significant disability (able to carry out all daily activities and affairs), Grade 2: slight disability (unable to carry out all previous activities but able to look after own affairs without assistance), Grade 3: moderate disability (requiring some help, but able to walk without assistance), Grade 4: relatively severe disability (requiring assistance for walk or daily activities), Grade 5: very severe disability (bedridden, incontinence and requiring constant nursing care and attention), Grade 6: death.

| Molecule | Number of patients in Grade 0, modified ranking scale [1] | Number of patients in Grade 1 (some symptoms but non-significant disability), modified ranking scale [1] | Number of patients in Grade 2 (slight disability), modified ranking scale [1] | Number of patients in Grade 3, modified ranking scale [1] | Number of patients in Grade 4 (relatively severe disability), modified ranking scale [1] | Number of patients in Grade 5, modified ranking scale [1] | Number of patients in Grade 6, modified ranking scale [1] | Bleeding time [2] | Ratio of Grade 0 [3] | Influence on bleeding time compared with the control group (physiological saline) ([2]; t-PA 1 mg/kg, result in words) | Number of patients in Grade 0 (no symptoms), modified ranking scale [4] | Number of patients in Grade 1 (some symptoms but non-significant disability), modified ranking scale [4] | Number of patients in Grade 2 (slight disability), modified ranking scale [4] | Number of patients in Grade 3 (moderate disability), modified ranking scale [4] | Number of patients in Grade 4 (relatively severe disability), modified ranking scale [4] | Number of patients in Grade 5 (very severe disability), modified ranking scale [4] | Number of patients in Grade 6 (death), modified ranking scale [4] |
| --- | --- | --- | --- | --- | --- | --- | --- | --- | --- | --- | --- | --- | --- | --- | --- | --- | --- |
| CC1=NN(c2ccccc2)C(=O)C1 [Edaravone, 3-methyl-1-phenyl-2-pyrazolin-5-one] | 0 | 2 | 3 | 0 | 3 | 0 | 0 | 11.55 ± 2.31 min | 0% |  |  |  |  |  |  |  |  |
| t-PA: tissue plasminogen activator, thrombolytic agent; GRTPA (Mitsubishi Pharma Corporation) can be used |  |  |  |  |  |  |  | 17.70 ± 2.85 min |  | prolonged the bleeding time significantly |  |  |  |  |  |  |  |
| CC1CNc2c(cccc2S(=O)(=O)N[C@@H](CCCNC(=N)N)C(=O)N2CC[C@@H](C)C[C@@H]2C(=O)O)C1 (mixture of isomers) [NOV, (2R, 4R)4-methyl-1-[N^2-((RS)-3-methyl-1,2,3,4-tetrahydro-8-quinolinesulfonyl)-L-arginyl]-2-piperidinecarboxylic acid monohydrate] |  |  |  |  |  |  |  |  |  |  | 1 | 1 | 2 | 1 | 0 | 3 | 0 |
| O=C([O-])/C=C/c1ccc(Cn2ccnc2)cc1.[Na+] [OZA] |  |  |  |  |  |  |  |  |  |  | 5 | 2 | 1 | 1 | 0 | 0 | 0 |
